Measured values taken from ChEMBL document CHEMBL5390218, “Benzimidazole derivatives as tubulin polymerization inhibitors: Design, synthesis and in vitro cytotoxicity studies” (Bioorg Med Chem Lett, 2023).
Calls of active or inactive are those of the source. The calls are words filed in the database; no cut-off is given here.

How the values were obtained:
MCF7 = test: Anticancer activity against human MCF7 cells assessed as inhibition in cell growth measured after 72 hrs by MTT assay; type: functional, cell-based; conditions: MCF7, 72 h
SK-MEL-28 [1] = test: Anticancer activity against human SK-MEL-28 cells assessed as inhibition in cell growth measured after 72 hrs by MTT assay; type: functional, cell-based; conditions: SK-MEL-28, 72 h
A549 = test: Anticancer activity against human A549 cells assessed as inhibition in cell growth measured after 72 hrs by MTT assay; type: functional, cell-based; conditions: A549, 72 h
B16-F10 = test: Anticancer activity against mouse B16-F10 cells assessed as inhibition in cell growth measured after 72 hrs by MTT assay; type: functional, cell-based; conditions: B16-F10, 72 h
[2] = Cytotoxicity against NRK-52E cells assessed as inhibition in cell growth measured after 72 hrs by MTT assay; type: toxicity, cell-based; conditions: rat
HCT-116 = test: Anticancer activity against human HCT-116 cells assessed as inhibition in cell growth measured after 72 hrs by MTT assay; type: functional, cell-based; conditions: HCT-116, 72 h
[3] = Selectivity index, ratio of IC50 for NRK-52E cells to ratio of IC50 for mouse B16-F10 cells; type: toxicity; conditions: NRK-52E cells versus B16-F10 cells, read-out: Selectivity Index
SK-MEL-28 [4] = test: Induction of morphological changes in human SK-MEL-28 cells assessed as nuclear shrinkage at 1 to 5 uM measured after 48 hrs DAPI staining based analysis; type: functional, cell-based; conditions: dose 1-5 µM
SK-MEL-28 [5] = test: Induction of morphological changes in human SK-MEL-28 cells assessed as chromatin condensation at 1 to 5 uM measured after 48 hrs DAPI staining based analysis; type: functional, cell-based; conditions: dose 1-5 µM
[6] = Selectivity index, ratio of IC50 for NRK-52E cells to ratio of IC50 for human HCT-116 cells; type: toxicity; conditions: rat (NRK-52E), NRK-52E cells versus HCT-116 cells, read-out: Selectivity Index
SK-MEL-28 [7] = test: Induction of morphological changes in human SK-MEL-28 cells assessed as production of apoptotic bodies by ethidium bromide/acridine orange staining based analysis; type: functional, cell-based; conditions: dose 1-5 µM
[8] = Selectivity index, ratio of IC50 for NRK-52E cells to ratio of IC50 for human MCF7 cells; type: toxicity; conditions: rat (NRK-52E), NRK-52E cells versus MCF7 cells, read-out: Selectivity Index
[9] = Selectivity index, ratio of IC50 for NRK-52E cells to ratio of IC50 for human SK-MEL-28 cells
SK-MEL-28 [10] = test: Induction of morphological changes in human SK-MEL-28 cells assessed as membrane blebbing by ethidium bromide/acridine orange staining based analysis; type: functional, cell-based; conditions: dose 1-5 µM
SK-MEL-28 [11] = test: Induction of morphological changes in human SK-MEL-28 cells assessed as bright fragmented nuclei at 1 to 5 uM measured after 48 hrs DAPI staining based analysis; type: functional, cell-based; conditions: dose 1-5 µM
SK-MEL-28 [12] = test: Inhibition of cell migration in human SK-MEL-28 cells at 1 to 5 uM incubated for 0 to 48 hrs by wound healing assay; type: functional, cell-based; conditions: dose 1-5 µM, time 0-48 hrs
SK-MEL-28 [13] = test: Inhibition of cell migration in human SK-MEL-28 cells at 1 to 5 uM incubated for 0 to 48 hrs by phase-contrast microscopy; type: functional, cell-based; conditions: dose 1-5 µM, time 0-48 hrs
SK-MEL-28 [14] = test: Induction of ROS generation in human SK-MEL-28 cells by DCFDA staining based analysis; type: functional, cell-based; conditions: dose 1-5 µM
SK-MEL-28 [15] = test: Induction of morphological changes in human SK-MEL-28 cells assessed as bright pyknotic nuclei at 1 to 5 uM measured after 48 hrs DAPI staining based analysis; type: functional, cell-based; conditions: dose 1-5 µM
SK-MEL-28 [16] = test: Inhibition of colony formation in human SK-MEL-28 cells incubated for 48 hrs by crystal violet staining based colony formation assay; type: functional, cell-based; conditions: dose 1-5 µM
[17] = Selectivity index, ratio of IC50 for NRK-52E cells to ratio of IC50 for human A549 cells; type: toxicity; conditions: rat (NRK-52E), NRK-52E cells versus A549 cells, read-out: Selectivity Index
SK-MEL-28 [18] = test: Induction of morphological changes in human SK-MEL-28 cells assessed as appearance of nuclei at 1 to 5 uM measured after 48 hrs DAPI staining based analysis; type: functional, cell-based; conditions: dose 1-5 µM
SK-MEL-28 [19] = test: Induction of morphological changes in human SK-MEL-28 cells assessed as chromatin condensation by ethidium bromide/acridine orange staining based analysis; type: functional, cell-based; conditions: dose 1-5 µM
SK-MEL-28 [20] = test: Induction of morphological changes in human SK-MEL-28 cells assessed as cell shrinkage by ethidium bromide/acridine orange staining based analysis; type: functional; conditions: dose 1-5 µM

SMILES | IC50 (MCF7) [µM] | IC50 (SK-MEL-28 [1]) [µM] | IC50 (A549) [µM] | IC50 (B16-F10) [µM] | IC50 at 72 h [2] [µM] | IC50 (HCT-116) [µM] | also measured
COc1cc(-c2nc3cc(F)ccc3[nH]2)ccc1OCC(=O)N1CCCC1 | > 20 | > 20 | > 20 | > 20 | > 100 | > 20 | 
COc1cc(-c2nc3cc(C)ccc3[nH]2)ccc1OCC(=O)N1CCCCC1 | > 20 | > 20 | > 20 | > 20 | > 100 | > 20 | 
COc1cc(-c2nc3cc(C)ccc3[nH]2)ccc1OCC(=O)N1CCc2ccccc2C1 | 5.9 | 2.55 | 5.5 | 4.76 | 51.9 | 6.04 | selectivity ratio [3]: 10.9; Activity (SK-MEL-28 [4]): Active; Activity (SK-MEL-28 [5]): Active; selectivity ratio [6]: 8.6; Activity (SK-MEL-28 [7]): Dose-Dependent Effect; selectivity ratio [8]: 8.8; Selectivity Index [9]: 20.3; Activity (SK-MEL-28 [10]): Dose-Dependent Effect; Activity (SK-MEL-28 [11]): Active; inhibition (SK-MEL-28 [12]): Active; inhibition (SK-MEL-28 [13]): Active; Activity (SK-MEL-28 [14]): Dose-Dependent Effect; Activity (SK-MEL-28 [15]): Active; inhibition (SK-MEL-28 [16]): Dose-Dependent Effect; selectivity ratio [17]: 9.4; Activity (SK-MEL-28 [18]): Active; Activity (SK-MEL-28 [19]): Dose-Dependent Effect; Activity (SK-MEL-28 [20]): Dose-Dependent Effect
COc1cc(-c2nc3ccccc3[nH]2)ccc1OCC(=O)N1CCOCC1 | > 20 | > 20 | > 20 | > 20 | > 100 | > 20 | 
COc1cc(-c2nc3ccccc3[nH]2)ccc1OCC(=O)N1CCCCC1 | > 20 | > 20 | > 20 | > 20 | > 100 | > 20 | 
COc1ccc2[nH]c(-c3ccc(OCC(=O)N4CCN(C(=O)OC(C)(C)C)CC4)c(OC)c3)nc2c1 | > 20 | > 20 | > 20 | > 20 | > 100 | > 20 | 
COc1ccc2[nH]c(-c3ccc(OCC(=O)N4CCc5ccccc5C4)c(OC)c3)nc2c1 | 11 | 2.95 | 8.12 | 4.96 | 20.5 | 7.9 | 
COc1ccc2[nH]c(-c3ccc(OCC(=O)N4CCN(c5ncccn5)CC4)c(OC)c3)nc2c1 | > 20 | 6.13 | 8.35 | 12.5 | > 100 | > 20 | 
COc1cc(-c2nc3cc(C)ccc3[nH]2)ccc1OCC(=O)N1CCOCC1 | > 20 | > 20 | > 20 | > 20 | > 100 | > 20 | 
COc1cc(-c2nc3cc(F)ccc3[nH]2)ccc1OCC(=O)N1CCCCC1 | > 20 | > 20 | > 20 | > 20 | > 100 | > 20 | 
COc1ccc2[nH]c(-c3ccc(OCC(=O)N4CCOCC4)c(OC)c3)nc2c1 | > 20 | > 20 | > 20 | > 20 | > 100 | > 20 | 
COc1cc(-c2nc3ccccc3[nH]2)ccc1OCC(=O)N1CCc2ccccc2C1 | > 20 | > 20 | > 20 | > 20 | > 100 | > 20 | 
COC(=O)Nc1nc2cc(C(=O)c3cccs3)ccc2[nH]1 [NOCODAZOLE] | 4.13 | 8.59 | 5.93 | 8.58 |  | 3.5 | 
COc1cc(-c2nc3cc(F)ccc3[nH]2)ccc1OCC(=O)N1CCN(C(=O)OC(C)(C)C)CC1 | > 20 | > 20 | > 20 | > 20 | > 100 | > 20 | 
COc1ccc2[nH]c(-c3ccc(OCC(=O)N4CCCCC4)c(OC)c3)nc2c1 | > 20 | > 20 | > 20 | > 20 | > 100 | > 20 | 
COc1cc(-c2nc3cc(F)ccc3[nH]2)ccc1OCC(=O)N1CCOCC1 | > 20 | > 20 | > 20 | > 20 | > 100 | > 20 | 
COc1cc(-c2nc3ccccc3[nH]2)ccc1OCC(=O)N1CCN(c2ncccn2)CC1 | > 20 | 12.2 | > 20 | > 20 | > 100 | > 20 | 
COc1ccc2[nH]c(-c3ccc(OCC(=O)N4CCCC4)c(OC)c3)nc2c1 | > 20 | > 20 | > 20 | > 20 | > 100 | > 20 | 
COc1cc(-c2nc3cc(F)ccc3[nH]2)ccc1OCC(=O)N1CCN(c2ncccn2)CC1 | > 20 | 7.71 | 14 | 16.1 | > 100 | > 20 | 
COc1cc(-c2nc3ccccc3[nH]2)ccc1OCC(=O)N1CCN(C(=O)OC(C)(C)C)CC1 | > 20 | > 20 | > 20 | > 20 | > 100 | > 20 | 
COc1cc(-c2nc3cc(C)ccc3[nH]2)ccc1OCC(=O)N1CCN(c2ncccn2)CC1 | 11.8 | 5.42 | 7.93 | 8.53 | > 100 | 4.7 | 
COc1cc(-c2nc3ccccc3[nH]2)ccc1OCC(=O)N1CCCC1 | > 20 | > 20 | > 20 | > 20 | > 100 | > 20 | 
COc1cc(-c2nc3cc(C)ccc3[nH]2)ccc1OCC(=O)N1CCCC1 | > 20 | > 20 | > 20 | > 20 | > 100 | > 20 | 
COc1cc(-c2nc3ccccc3[nH]2)ccc1OCC(=O)N1CCc2ccccc21 | 7.68 | 3.82 | > 20 | > 20 | > 100 | > 20 | 
COc1ccc2[nH]c(-c3ccc(OCC(=O)N4CCc5ccccc54)c(OC)c3)nc2c1 | 7.78 | 3.32 | 8.05 | 12.6 | > 100 | 8.39 | 
COc1cc(-c2nc3cc(F)ccc3[nH]2)ccc1OCC(=O)N1CCc2ccccc2C1 | 14.7 | 8.59 | > 20 | > 20 | > 100 | 10.1 | 
COc1cc(-c2nc3cc(C)ccc3[nH]2)ccc1OCC(=O)N1CCc2ccccc21 | > 20 | > 20 | 6.89 | 15.6 | > 100 | > 20 | 
